For this assay, the system named is L1210 leukemia ip in BDF1 mice, survival T/C. The assay is described as follows: NCI In Vivo Anticancer Drug Screen. Data for tumor model L1210 Leukemia (intraperitoneal) in B6D2F1 (BDF1) mice. The following applies: endpoint: mean survival time, higher = longer survival. Put shortly: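 Read-out is survival time, reported as the treated-group measurement over the vehicle-control measurement.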

The mark [1] stands for this setting: dose: 100.0 mg/kg/injection, schedule: Q04DX002 (ip), vehicle: Klucel (hydroxypropylcellulose) (HPC).
Setting [2] is: dose: 200.0 mg/kg/injection, schedule: Q04DX002 (ip), vehicle: Klucel (hydroxypropylcellulose) (HPC).
[3] abbreviates: dose: 400.0 mg/kg/injection, schedule: Q04DX002 (ip), vehicle: Klucel (hydroxypropylcellulose) (HPC).
Setting [4] is: dose: 200.0 mg/kg/injection, schedule: Q04DX002 (ip), vehicle: saline with Tween-80.
[5] abbreviates: dose: 400.0 mg/kg/injection, schedule: Q04DX002 (ip), vehicle: saline with Tween-80.
The mark [6] stands for this setting: dose: 100.0 mg/kg/injection, schedule: Q01DX009 (ip), vehicle: saline.
Where [7] appears, read: dose: 200.0 mg/kg/injection, schedule: Q01DX009 (ip), vehicle: saline.

“And” between values parts separate entries of the source, which are not always exact repeats. Identical values can stand only once. Inconclusive results and toxic doses are left out. Square brackets hold non-standard residues; d marks the D form. Peptide text beside a SMILES is read from it. * marks the point of attachment. ξ: configuration not given here. Octanoyl = CCCCCCCC(=O)*; OBn = c1ccc(CO*)cc1; ξP = O=C(O)C1CCCN1

With `CCCCCCCC(=O)N1CCCC1C(=O)NCC(=O)NCC(=O)OCc1ccccc1` (stereo not drawn) (Octanoyl-[ξP]-Gly-Gly-OBn), the T/C runs as follows: under setting [1], 94 % of control; under setting [2], 86 % of control; under setting [3], 105 % of control.
Consider `O=C(c1ccccc1)c1ccsc1C(=O)O`, for which the T/C is 94 % of control (dose: 6.25 mg/kg/injection, schedule: Q04DX002 (ip), vehicle: saline with Tween-80); 97 % of control (dose: 12.5 mg/kg/injection, schedule: Q04DX002 (ip), vehicle: saline with Tween-80); 90 % of control (dose: 25.0 mg/kg/injection, schedule: Q04DX002 (ip), vehicle: saline with Tween-80); 101 % of control under setting [4]; 89 % of control under setting [5].
Turning to `O=C(O)c1ccc(N=Nc2ncc[nH]2)cc1`, the T/C reads like this: (dose: 6.25 mg/kg/injection, schedule: Q01DX009 (ip), vehicle: saline with Tween-80) 92 % of control; (dose: 12.5 mg/kg/injection, schedule: Q01DX009 (ip), vehicle: saline with Tween-80) 96 % of control; (dose: 25.0 mg/kg/injection, schedule: Q01DX009 (ip), vehicle: saline with Tween-80) 96 % of control; (dose: 50.0 mg/kg/injection, schedule: Q01DX009 (ip), vehicle: saline with Tween-80) 87 % of control.
As to `CSCCC(NC(C)=O)C(=O)NNC(C)C` (stereo not given), the T/C was 101 % of control (dose: 25.0 mg/kg/injection, schedule: Q01DX009 (ip), vehicle: saline); 92 % of control (dose: 50.0 mg/kg/injection, schedule: Q01DX009 (ip), vehicle: saline); 92 % of control under setting [6]; 95 % of control under setting [7]; 93 % of control (dose: 400.0 mg/kg/injection, schedule: Q01DX009 (ip), vehicle: saline).
For the compound `CCOC(=O)NNC(=O)c1ccccc1`, the T/C runs as follows: (dose: 12.5 mg/kg/injection, schedule: Q01DX009 (ip), vehicle: alcohol) 100 % of control; (dose: 25.0 mg/kg/injection, schedule: Q01DX009 (ip), vehicle: alcohol) 90 % of control; (dose: 25.0 mg/kg/injection, schedule: Q04DX003 (ip), vehicle: alcohol) 103 % of control; (dose: 50.0 mg/kg/injection, schedule: Q01DX009 (ip), vehicle: alcohol) 89 % of control; (dose: 50.0 mg/kg/injection, schedule: Q04DX003 (ip), vehicle: alcohol) 101 % of control.
`CC1(C#N)CC(C#N)Nc2ccccc2N1` (stereo not given): the T/C by setting is: under setting [6], 104 % of control; under setting [7], 98 % of control.
Regarding `C[n+]1ccc(NC(=O)c2ccc(NC(=O)c3cccc(C(=O)Nc4ccc(C(=O)Nc5cc[n+](C)cc5)cc4)c3)cc2)cc1`, the T/C was 108 % of control (dose: 1.25 mg/kg/injection, schedule: Q01DX Z (ip), vehicle: carboxymethylcellulose (CMC)); 113 % of control (dose: 2.5 mg/kg/injection, schedule: Q01DX Z (ip), vehicle: carboxymethylcellulose (CMC)); 108 % of control (dose: 5.0 mg/kg/injection, schedule: Q01DX Z (ip), vehicle: carboxymethylcellulose (CMC)); 111 % of control (dose: 10.0 mg/kg/injection, schedule: Q01DX Z (ip), vehicle: carboxymethylcellulose (CMC)); 161 % of control (dose: 20.0 mg/kg/injection, schedule: Q01DX Z (ip), vehicle: carboxymethylcellulose (CMC)); 166 % of control (dose: 40.0 mg/kg/injection, schedule: Q01DX Z (ip), vehicle: carboxymethylcellulose (CMC)). The T/C reads like this: (dose: 62.0 mg/kg/injection, schedule: Q01DX Z (oral), vehicle: carboxymethylcellulose (CMC)) 97 % of control; (dose: 80.0 mg/kg/injection, schedule: Q01DX Z (ip), vehicle: carboxymethylcellulose (CMC)) 188 % of control; (dose: 125.0 mg/kg/injection, schedule: Q01DX Z (oral), vehicle: carboxymethylcellulose (CMC)) 98 % of control; (dose: 160.0 mg/kg/injection, schedule: Q01DX Z (ip), vehicle: carboxymethylcellulose (CMC)) 153 % of control; (dose: 250.0 mg/kg/injection, schedule: Q01DX Z (oral), vehicle: carboxymethylcellulose (CMC)) 112 % of control; (dose: 500.0 mg/kg/injection, schedule: Q01DX Z (oral), vehicle: carboxymethylcellulose (CMC)) 108 % of control.
With `ClC(Cl)C1OCCOCCO1`, the T/C reads like this: under setting [1], 97 % of control; under setting [2], 100 % of control; under setting [3], 97 % of control.
On to `Cc1nc(N)[nH]c(=O)c1CCC(=O)O`, for which the T/C by setting is: (dose: 100.0 mg/kg/injection, schedule: Q04DX003 (ip), vehicle: saline) 102 % of control; (dose: 400.0 mg/kg/injection, schedule: Q04DX003 (ip), vehicle: saline) 107 % of control.
For the compound `CC(CO)(CO)N=Cc1cc(Cl)ccc1O`, the T/C reads like this: (dose: 100.0 mg/kg/injection, schedule: Q01DX001 (ip), vehicle: carboxymethylcellulose (CMC)) 91 % of control; (dose: 200.0 mg/kg/injection, schedule: Q01DX001 (ip), vehicle: carboxymethylcellulose (CMC)) 96 % of control; (dose: 400.0 mg/kg/injection, schedule: Q01DX001 (ip), vehicle: carboxymethylcellulose (CMC)) 109 % of control.
In the case of `CCOc1cc(/C=N/NC(=O)C(O)C(O)C(O)C(O)CO)ccc1O` (stereo not given), the T/C is 98 % of control and 103 % of control (dose: 100.0 mg/kg/injection, schedule: Q01DX009 (ip), vehicle: saline with Tween-80); 100 % of control and 90 % of control (dose: 100.0 mg/kg/injection, schedule: Q04DX002 (ip), vehicle: saline with Tween-80); 95 % of control (dose: 100.0 mg/kg/injection, schedule: Q04DX003 (ip), vehicle: saline with Tween-80); 95 % of control and 91 % of control (dose: 200.0 mg/kg/injection, schedule: Q01DX009 (ip), vehicle: saline with Tween-80); 108 % of control and 116 % of control under setting [4]; 95 % of control (dose: 200.0 mg/kg/injection, schedule: Q04DX003 (ip), vehicle: saline with Tween-80). Besides, the T/C is, setting by setting: (dose: 400.0 mg/kg/injection, schedule: Q01DX009 (ip), vehicle: saline with Tween-80) 88 % of control and 90 % of control; under setting [5], 90 % of control and 91 % of control; (dose: 400.0 mg/kg/injection, schedule: Q04DX003 (ip), vehicle: saline with Tween-80) 93 % of control.
With `C[n+]1ccc(/C=C/c2csc3ccccc23)cc1`, the T/C (dose: 5.0 mg/kg/injection, schedule: Q01DX001 (ip), vehicle: carboxymethylcellulose (CMC)) was 107 % of control; the T/C (dose: 10.0 mg/kg/injection, schedule: Q01DX001 (ip), vehicle: carboxymethylcellulose (CMC)) is 96 % of control; the T/C (dose: 20.0 mg/kg/injection, schedule: Q01DX001 (ip), vehicle: carboxymethylcellulose (CMC)) is 91 % of control; the T/C (dose: 40.0 mg/kg/injection, schedule: Q01DX001 (ip), vehicle: carboxymethylcellulose (CMC)) was 98 % of control.
As to `c1cc2cnc3cccc4cnc(c1)c2c43`, the T/C was 105 % of control (dose: 100.0 mg/kg/injection, schedule: Q04DX003 (ip), vehicle: saline sonified); 95 % of control (dose: 200.0 mg/kg/injection, schedule: Q04DX003 (ip), vehicle: saline sonified); 97 % of control (dose: 400.0 mg/kg/injection, schedule: Q04DX003 (ip), vehicle: saline sonified).

(Values after PubChem BioAssay AID248 (DTP/NCI, 2004).)
